Measurements as given in US20250263396A1, “CRYSTALLINE FORMS OF 3-(5-(2-HYDROXY-2- METHYLPROPOXY)-6-METHYPYRAZIN-2-YL)-1H-INDOLE-7-CARBONITRILE” (NIDO BIOSCIENCES, INC., priority 2024, published 2025).
≈ marks a conversion by molar mass, not a printed value. Like-named read-outs stand apart in the source and are kept apart here.

Legend:
physchem = settings: 37 °C, thermodynamic from solid
[1] = cake dried under vacuum
[2] = Solid state
[3] = 25° C./92.5% RH, open container, 1 week
[4] = 25° C./92.5% RH, open container, 2 weeks
[5] = 25° C./92.5% RH, open container, 4 weeks
[6] = 40° C./75% RH, open container, 1 week
[7] = 40° C./75% RH, open container, 2 weeks
[8] = 40° C./75% RH, open container, 4 weeks
[9] = 60° C., tight container, 1 week
[10] = 60° C., tight container, 2 weeks
[11] = 60° C., tight container, 4 weeks
[12] = photo (visible light, closed, 1.2 million lux-hrs at 25° C.), clear vial
[13] = photo (visible light, closed, 1.2 million lux-hrs at 25° C.), wrapped with aluminum foil

**Q.** Which results are given for `Cc1nc(-c2c[nH]c3c(C#N)cccc23)cnc1OCC(C)(C)O` [Form P, 3-(5-(2-hydroxy-2-methylpropoxy)-6-methylpyrazin-2-yl)-1H-indole-7-carbonitrile]?
**A.** solubility at 24 h (physchem; pH 1.2, simulated gastric fluid): 7.2 µg/mL (≈ 22.3 µM); solubility at 24 h (physchem; pH 1.6, fassgf or other biorelevant): 5.1 µg/mL (≈ 15.8 µM); solubility at 24 h (physchem; pH 3, aqueous buffer): 2.9 µg/mL (≈ 9 µM); solubility at 24 h (physchem; pH 5, aqueous buffer): 2.3 µg/mL (≈ 7.13 µM); solubility at 24 h (physchem; pH 5, fessif): 111 µg/mL (≈ 343 µM); solubility at 24 h (physchem; pH 6.5, fassif): 20.9 µg/mL (≈ 64.8 µM); solubility at 24 h (physchem; pH 7, aqueous buffer): 2.4 µg/mL (≈ 7.44 µM); solubility at 24 h (physchem; water): 2.7 µg/mL (≈ 8.38 µM); Purity after holding ([1]; 0 h): Purity: 100%; Purity after holding ([1]; 40° C., 22 h): 100%; Purity after holding ([1]; 40° C., 4 d): 100%; Purity after holding ([1]; 50° C., 22 h): 100%; Purity after holding ([1]; 50° C., 4 d): 100%; Purity after holding ([1]; 60° C., 22 h): 100%; Purity after holding ([1]; 60° C., 4 d): 100%; Bulk (XRPD) [2, 3]: No form change; Color [2, 3]: No color change; Purity, Bulk (HPLC) [2, 3]: 100%; Bulk (XRPD) [2, 4]: No form change; Color [2, 4]: No color change; Purity, Bulk (HPLC) [2, 4]: 100%; Bulk (XRPD) [2, 5]: No form change; Color [2, 5]: No color change; Purity, Bulk (HPLC) [2, 5]: 100%; Bulk (XRPD) [2, 6]: No form change; Color [2, 6]: No color change; Purity, Bulk (HPLC) [2, 6]: 100%; Bulk (XRPD) [2, 7]: No form change; Color [2, 7]: No color change; Purity, Bulk (HPLC) [2, 7]: 100%; Bulk (XRPD) [2, 8]: No form change; Color [2, 8]: No color change; Purity, Bulk (HPLC) [2, 8]: 100%; Bulk (XRPD) [2, 9]: No form change; Color [2, 9]: No color change; Purity, Bulk (HPLC) [2, 9]: 99.9%; Bulk (XRPD) [2, 10]: No form change; Color [2, 10]: No color change; Purity, Bulk (HPLC) [2, 10]: 100%; Bulk (XRPD) [2, 11]: No form change; Color [2, 11]: No color change; Purity, Bulk (HPLC) [2, 11]: 100%; Bulk, clear vial (XRPD) [2, 12]: No form change; Color [2, 12]: medium discoloration; Purity, Bulk, clear vial (HPLC) [2, 12]: ~60%; Color [2, 13]: No color change; Purity, Bulk, wrapped with aluminum foil (HPLC) [2, 13]: 100%
